{"source": "patent US9265741B2", "about": "“Molecules to perfect HbA1c levels” (Neville Pharmaceutical, Inc., priority 2011, dated 2016)", "key": {"[1]": {"test": "Safety test in human volunteers", "assay_type": "in vivo", "conditions": "clinically prescribed doses", "from_the_text": "Methyl pyruvate performs as a lipophilic antisense-like bullet that penetrates cell membranes, mitochondrial membranes and nuclear membranes with its active and passive delivery of energy via protons, adenosine triphosphate manufacture (ATP) and methylation. This energy delivering metabolic bullet upregulates all cytosolic and nuclear capabilities. It can even negate messenger RNA (mRNA) expression. Now, because of instant protons and pyruvate delivered, there is immediately empowered glycolysis and/or CAC production of ATP and the cell functions with more efficient performance. Through this newly available energy, gene silencing can be reversed, repairs completed, apoptosis performed, and the cell is upgraded and/or divides (cell partitioning) into a new and improved cell having shed its prior oxidative cellular/genetic debris. In DM this means improved Glut4 networking, improved insulin sensitivity, increased intra and intercellular networking and increased superoxide dismutase (SOD) production. Further, due to MP, many nutrients and complicit molecules including peroxisome proliferator-activator receptor (Ppars) will now function more effectively and efficiently, i.e. as infused and increased cellular energy can now affect niacinamide (B3) and nicotinamide adenine dinucleotide (NAD) at an intracellular level that enables and protects beta cell function. […]"}, "HbA1c": {"test_system": "HbA1c", "test": "Twelve patients with DM took MP for three months; HbA1c measured", "assay_type": "in vivo, human", "from_the_text": "Twelve patients with DM, including a juvenile diabetic, took two (2) grams of MP in water two (2) times per day for three (3) months without any other lifestyle change. The average decrease of HbA1c was one percent (1%). (The group average HbA1c diminished from 7.5% to 6.5% during the course of three (3) months of treatment.)"}, "[2]": {"test_system": "pancreatic rat islet cells", "test": "MP instilled into pancreatic rat islet cells; insulin manufacture", "assay_type": "cell-based", "conditions": "pancreatic rat islet cells (animal model), several studies", "from_the_text": "The methyl pyruvate molecule and certain of these molecular analogues are lipophilic antisense-like permeants, each of which holds onto its own membrane penetrability as well as acting collectively to produce a timed release delivery within the inner mitochondria. The combinational synergy can be different than each effect individually. […] This up regulation is key for enhanced utilization and regulation of glucose transport. MP closes potassium channels and opens calcium channels (via aquaporin generation) allowing a more favorable cellular milieu (increases cytosolic pH) that increases CAC productivity via our delivered MP (as pyruvate), as well as the now utilizable glucose. The use of MP and/or EP as energy molecules allows gene silenced and disabled near-apoptotic cells to proceed logically/genomically to a more idealized homeostatic state for the organism. The invention represents a method for genomic self-regulation of HbA1c.\nMP instilled into pancreatic rat islet cells enable upregulation of insulin manufacture six-fold in several studies. The measured Jurkat current is countered and neutralized by MP's proton impedance enhancing its later provocation in increased insulin manufacture."}}, "data": [{"compound": "CCOC(=O)C(C)=O", "note": "[EP, ethyl pyruvate]", "values": [{"measurement": "safety in human volunteers", "setting": "[1]", "result": "safe"}]}, {"compound": "COC(=O)C(C)=O", "note": "[MP, methyl pyruvate]", "values": [{"measurement": "safety in human volunteers", "setting": "[1]", "result": "safe"}, {"measurement": "average decrease of HbA1c", "setting": "HbA1c; 2 grams of MP in water 2 times per day for 3 months, no other lifestyle change", "result": 1, "unit": "%"}, {"measurement": "group average HbA1c after treatment", "setting": "HbA1c; after 3 months of 2 grams of MP in water 2 times per day", "result": 6.5, "unit": "%"}, {"measurement": "group average HbA1c before treatment", "setting": "HbA1c; start of treatment (baseline)", "result": 7.5, "unit": "%"}, {"measurement": "upregulation of insulin manufacture", "setting": "[2]", "result": "six-fold"}]}]}
